Reference: patent US20100305198A1, “CATIONIC LIPIDS” (THE UNIVERSITY COURT OF THE UNIVERSITY OF EDINBURG, priority 2007, published 2010)

Tests used:
HeLa cells = assay: Transfection of pEGFP-C1 into HeLa cell line (GFP expression by flow cytometry); type: cell-based, Human
Protocol: (§1) The corresponding cationic lipid 6a-l (1 mM in methanol) with or without DOPE (1 mM in methanol) were mixed in different proportions and the organic solvent removed by evaporation in an oven (37° C.) overnight. The resultant thin films were then hydrated with PBS. The solutions were vortexed (10-20 s) and incubated at ambient temperature for 30 min. Plasmid DNA or siRNA solution (0.04 mg/mL in PBS or another isotonic solution) was subsequently added and the solution vortexed (10-20 s). The lipoplexes were incubated at room temperature for 30 min before being used.
Human HeLa cells were grown in RPMI supplemented with 4 mM glutamine, 10% FCS and 100 units/ml penicillin/streptomycin (RPMI-CM) until 80% confluence. Cells were then suspended using trypsin/EDTA and counted. 2×10^4 cells in 150 μL of RPMI-CM per well were seeded in 96 well plates and incubated overnight. The day afterwards, the different lipoplex formulations were added. Each experiment was performed in quadruplicate, using Effectene® Transfection Reagent (Qiagen) and Lipofectamine™ 2000 (Invitrogen) as positive control and untreated cells as negative control.
After incubation for two days at 37° C. and 5% CO2 (the change of media after transfection was not necessary), the green fluorescent protein (GFP) expression, consequence of transfecting the pEGFP-C1, was evidenced using a fluorescent microscope (Leica) and measured by flow cytometry. For the flow cytometry analysis, cells were washed twice with PBS, detached with trypsin/EDTA, harvested with 2% ferum bovine serum (FBS) in PBS, centrifuged and resuspended with 2% FBS in PBS and analyzed using a BD FACSaria flow cytometer. Transfection efficiency was measured as percentage of transfected cells and total mean fluorescence. […] The number of cells analyzed per sample was 10,000. […] Each point represents a cell. The second column of graphs represents cell number in the y-axis and fluorescence intensity in the x-axis. All the graphs have been divided into two populations of cells according with the fluorescence intensity in order to give a reference for the transfection analysis: in the untransfected cell control P1 comprises 95% of the total number of cells analyzed; when cells are transfected with compound 6f P1 comprises 19.1% of the total number of cells analyzed; within the cells transfected with Effectene® Transfection Reagent P1 comprises 35.8% of the total number of cells analyzed; when cells transfected with Lipofectamine™ 2000, P1 comprises 49.8% of the total number of cells analyzed. FITC-A Mean is the mean fluorescence (arbitrary units) calculated for each population. The mean fluorescence calculated for P2 of the cells transfected with compound 6f is 120,059, which is, by far, the best result of (A)-(D).

[1] = tested on: human embryonic kidney (HEK) 293T cell line; assay: Transfection of pEGFP-C1 into HEK293T cell line (flow cytometry); type: cell-based
Protocol: as §1

[2] = tested on: B16F10 mouse melanoma cells; assay: Transfection of pEGFP-C1 into B16F10 cell line (flow cytometry); type: cell-based
Protocol: as §1

GFP-expressing mES cells = assay: Transfection of siRNA into GFP-expressing mouse stem cells (GFP knock-down, flow cytometry); type: cell-based; conditions: 48 h
Protocol: as §1
mES cells were grown in GMEM supplemented with 4 mM glutamine and 10% FBS in the absence of antibiotic until 80% confluence. Cells were then suspended using trypsin/EDTA and counted. 2×10^4 cells in 150 μL of GMEM-CM per well were seeded in 96-well plates and incubated overnight. The day afterwards, the different lipoplex formulations were added. […]
After incubation for two days at 37° C. and 5% CO2 (change of media after transfection was not necessary), the green fluorescent protein (GFP) reduced expression was measured by flow cytometry. For the flow cytometry analysis, cells were washed twice with PBS, detached with trypsin/EDTA, harvested with 2% FBS in PBS, centrifuged and resuspended with 2% FBS in PBS and analyzed using a BD FACSaria flow cytometer. […] In Vivo Transfection and Non-Invasive Luminescence Imaging from Living Mice

mouse lung = assay: In vivo transfection of luciferase-reporter plasmid (pLux) by intratracheal instillation and non-invasive luminescence imaging
Protocol: Mice were anesthetized and intubated following standard protocols. 16 μg of a luciferase-reporter plasmid (pLux, 4-6 mg/mL in PBS or another isotonic buffer) was complexed with Oleyl derivative 6i (N/P 12, 1:2 mol mixture with DOPE) following the protocol described before. Lipoplex formulation (total volume=50 μL) and naked plasmid (16 μg of plasmid in 50 μL of PBS) were then administrated into the lung by direct intratracheal instillation through peroral intubation.
Firefly luciferin (15 mg/kg) was intraperitoneally administrated to the anesthetized mice half an hour before scanning for luminescence. Mice were then imaged every 2 minutes using an IVIS SPECTRUM imaging device. FIGS. 9 and 10 show the non-invasive in vivo luminescence imaging of anesthetized mice transfected with 16 μg of a luciferase-reporter plasmid (pLux) complexed with derivative 6i (left mouse) and naked plasmid (right mouse) 72 and 120 hours after instillation respectively.

Row | Compound | P1 population as % of the total number of cells analyzed (HeLa cells; HeLa 48 h after transfection with reporter plasmid, 10,000 cells per sample, P1 = 95% in untransfected control, 6f at N/P 12, 1:2 mol mixture with DOPE) [%] | Mean fluorescence (FITC-A Mean) calculated for P2 (HeLa cells; HeLa 48 h after transfection, N/P 12, 1:2 mol mixture with DOPE) | Transfection of HeLa cells compared with the positive controls (Lip2000 and Effectene) (HeLa cells; pEGFP-C1, 48 h, N/P ratio 12, 1:2 mol mixture with DOPE) | % of GFP-expressing cells calculated via flow cytometry [1] [%] | % of GFP-expressing cells calculated via flow cytometry [2] [%] | Knock-down of GFP expression compared with Lipofectamine 2000 (GFP-expressing mES cells; GFP-expressing mES cells) | Knock-down of GFP expression (GFP-expressing mES cells; GFP-transformed mouse stem cells, N/P 12, 1:2 mol mixture with DOPE, preliminary assays) [%] | In vivo luminescence after luciferin (mouse lung; 16 μg pLux complexed with lipid (N/P 12, 1:2 mol mixture with DOPE), intratracheal instillation, 72 and 120 hours after instillation) | Health of mice during the study (mouse lung; lipoplex instilled into the lung, followed on a daily basis) | Percentage of transfected (GFP-expressing, fluorescent) cells (HeLa cells; HeLa 48 hours after transfection with GFP-reporter plasmid, FIG. 6) [%]
1 | CCCCCCCCCCCCCCC(=O)NC(COC(=O)CCCN)(COC(=O)CCCN)COC(=O)CCCN [Compound 6f, N-[tris-(4-aminobutiryloximethyl)methyl]pentadecamide] | 19.1 | 120,059 arbitrary units | much better than the two positive controls | 62 | 43 | better than Lipofectamine™ 2000 | 40 |  |  | 
2 | CCCCCCCCC=CCCCCCCCC(=O)NC(COC(=O)CCCN)(COC(=O)CCCN)COC(=O)CCCN [Compound 6i, N-[tris-(4-aminobutiryloximethyl)methyl]-9-octadecenamide] |  |  |  | 54 | 61 |  |  | positive luminescence was detected | behaved healthily | 
3 | CCCCCCCCC=CCCCCCCCCOC(=O)CCC(=O)NC(COC(=O)CCCN)(COC(=O)CCCN)COC(=O)CCCN [Compound 13b, 9-octadecenyl [tris(4-aminobutanoyloxymethyl)methyl]amidosuccinate] |  |  |  |  |  |  |  |  |  | 79
